Assay results reported in PMC10812767, “Therapeutic Drug Monitoring of Dalbavancin in Real Life: A Two-Year Experience” (Antibiotics, 2023).

What was measured:
[1] = Therapeutic drug monitoring of plasma dalbavancin concentrations (Cmin, Cmax) by LC-MS/MS; assay type: in vivo, human (patients)
Description: This study involved a retrospective analysis of TDM that was routinely carried out by the ASST Fatebenefratelli Sacco University Hospital (Milan, Italy) from December 2021 to November 2023; the analysis included samples that were collected within our hospital and those received from other hospitals (our laboratory is a reference laboratory for the TDM of dalbavancin in Lombardy Region, Italy). This service also included the on-demand estimation of the next dalbavancin injection. This estimation required the collection of both the Cmin and the Cmax for dalbavancin. […] Plasma blood samples with dalbavancin were assessed by using ethylene diamine tetra-acetic acid (EDTA)-containing Vacutainers®. All samples were centrifuged at 3000× g, and the plasma was separated and stored at −20 °C. Dalbavancin quantification was performed through a validated LC-MS/MS method that was developed and validated according to the EMA guidelines. The analytical process consisted of a fast protein precipitation protocol of 50 µL of plasma with 400 µL of precipitation solution (methanol/acetonitrile 3/1), centrifugation at 10,000× g, 1:3 dilutions with water, and analysis. […] Waters, Milan, Italy). For quantification, analysis was performed in the ESI-positive mode by monitoring the transition (m/z = 909.45 > 340.2) for dalbavancin.

[2] = Log-linear regression models describing the time distribution of dalbavancin concentrations; settings: for Days >4 mg/L / Days >8 mg/L: log-linear regression model, pooled patients
Procedure: Coupled with the Cmin values, these samples facilitated the development of log-linear regression models describing the time distribution of dalbavancin concentrations for each injection. By targeting the Cmin values for dalbavancin that were not lower than 4 or 8 mg/L, we were able to estimate the number of days needed between each injection to guarantee these targets.
We retrospectively analyzed data from adult patients who received at least 3 doses of dalbavancin for the treatment of osteoarticular and/or periprosthetic joint infections for whom TDM was performed as part of clinical practice. On the day of the scheduled injection, the Cmin for dalbavancin within a 1 h time window before the injection was considered for both Cmin- and Cmax-based TDM. Peak drug concentrations (30 to 60 min after the end of the infusion) were collected only in patients subjected to Cmax-based TDM.
Dalbavacin concentrations were considered both as a continuous variable (expressed as the mean ± standard deviation) and categorical variables, and data (expressed as a percentage) were clustered according to their frequency distribution within the therapeutic ranges proposed in the available literature (>4 or >8 mg/L). Inter-individual variability in the dalbavancin concentrations was calculated as the percentage of the coefficient of variation (CV%). Log-linear regressions were performed using the built-in statistical package in Microsoft Excel (Microsoft Office Software, Microsoft Company, Redmond, WA, USA). The goodness of the log-linear regression models developed by plotting logarithmic concentrations (Y) of dalbavancin with time (X) was quantified using the coefficient of correlation (r). Unpaired t-tests were used to compare the Cmin for dalbavancin, the number of drug injections, and the times of injections between Cmin- and Cmax-based TDM. Statistical significance was set at <0.05 (significant difference) and <0.01 (highly significant difference).

[3] = cited from earlier work

SMILES: CN[C@H]1C(=O)N[C@@H]2Cc3ccc(cc3)Oc3cc4cc(c3O[C@@H]3O[C@H](C(=O)O)[C@@H](O)[C@H](O)[C@H]3NC(=O)CCCCCCCCC(C)C)Oc3ccc(cc3Cl)[C@@H](O)[C@@H]3NC(=O)[C@H](NC(=O)[C@@H]4NC(=O)[C@@H](NC2=O)c2cc(cc(O)c2Cl)Oc2cc1ccc2O)c1ccc(O)c(c1)-c1c(O[C@H]2O[C@H](CO)[C@@H](O)[C@H](O)[C@@H]2O)cc(O)cc1[C@@H](C(=O)NCCCN(C)C)NC3=O [dalbavancin]
- Cmax of dalbavancin, range ([1]; 107 TDM assessments, plasma, 30 to 60 min after end of infusion, LC-MS/MS, range): 74.9 to 995.6 mg/L
- Dalbavancin Cmin CV% ([1]; Cmax-based TDM, 2nd injection): 44%
- Dalbavancin Cmin CV% ([1]; Cmax-based TDM, 3rd injection): 46%
- Dalbavancin Cmin CV% ([1]; Cmax-based TDM, 4th injection): 40%
- Dalbavancin Cmin CV% ([1]; Cmax-based TDM, 5th injection): 21%
- Dalbavancin Cmin CV% ([1]; Cmax-based TDM, 6th injection): 32%
- Dalbavancin Cmin CV% ([1]; Cmax-based TDM, ≥6 injections): 32%
- Dalbavancin Cmin CV% ([1]; Cmin-based TDM, 2nd injection): 45%
- Dalbavancin Cmin CV% ([1]; Cmin-based TDM, 3rd injection): 57%
- Dalbavancin Cmin CV% ([1]; Cmin-based TDM, 4th injection): 43%
- Dalbavancin Cmin CV% ([1]; Cmin-based TDM, 5th injection): 56%
- Dalbavancin Cmin CV% ([1]; Cmin-based TDM, 6th injection): 41%
- Dalbavancin Cmin CV% ([1]; Cmin-based TDM, ≥6 injections): 37%
- Cmin for dalbavancin, range ([1]; human, in vivo, iv): 4.1 to 70.5 mg/L
- Cmin for dalbavancin before the second injection ([1]; human, in vivo, iv, SD): 39.6 ± 35.4 mg/L
- Cmin for dalbavancin, mean ([1]; human, in vivo, iv, SD): 20.7 ± 14.0 mg/L
- Cmax ([1]; human, in vivo, SD): 310 ± 158 µg/mL
- Days >4 mg/L ([2]; 2nd injection): 52 days
- Days >8 mg/L ([2]; 2nd injection): 42 days
- Days >4 mg/L ([2]; 3rd injection): 52 days
- Days >8 mg/L ([2]; 3rd injection): 43 days
- Days >4 mg/L ([2]; 4th injection): 59 days
- Days >8 mg/L ([2]; 4th injection): 48 days
- Days >4 mg/L ([2]; 5th injection): 56 days
- Days >8 mg/L ([2]; 5th injection): 45 days
- Days >4 mg/L ([2]; 6th injection): 53 days
- Days >8 mg/L ([2]; 6th injection): 44 days
- Days >4 mg/L ([2]; >6 injections): 52 days
- Days >8 mg/L ([2]; >6 injections): 42 days
- Days >4 mg/L ([2]; Overall): 54 days
- Days >8 mg/L ([2]; Overall): 44 days
- Days between injections needed to maintain Cmin >8 mg/L ([2]; estimated from pooled log-linear regression models, range over injections): 42 to 48 days
- terminal half-life ([3]; ref [1],[2],[3],[4]): > 14 days
- total volume of distribution ([3]; ref [2],[3]): ~16 L
